Results taken from US8658642B2 (Axikin Pharmaceuticals, Inc., priority 2009, dated 2014).

Molecular target: T1, CCR3 (Homo sapiens, UniProt P51677)
T1 sequence (P51677 1-355): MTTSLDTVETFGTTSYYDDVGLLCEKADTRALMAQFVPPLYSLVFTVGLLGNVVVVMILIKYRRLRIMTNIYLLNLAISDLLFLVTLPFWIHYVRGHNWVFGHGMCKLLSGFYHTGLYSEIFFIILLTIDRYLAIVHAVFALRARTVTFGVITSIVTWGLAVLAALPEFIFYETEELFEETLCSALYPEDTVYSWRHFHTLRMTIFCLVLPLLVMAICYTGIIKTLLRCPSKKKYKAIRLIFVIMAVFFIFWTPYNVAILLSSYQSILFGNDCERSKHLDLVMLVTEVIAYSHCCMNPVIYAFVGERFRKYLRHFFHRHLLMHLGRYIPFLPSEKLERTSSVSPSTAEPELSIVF
Experiment: CCR3 receptor binding assay ([125I]-labeled human eotaxin/CCL11 displacement on cells)
Conditions: 0.1 nM [125I]-labeled human eotaxin/CCL11, 2×10^5 cells/well, 60 min at room temperature
Description: CCR3 Receptor Binding Assay
Cells were washed once with PBS and resuspended in a binding buffer (25 mM HEPES pH 7.6, 5 mM MgCl2, 1 mM CaCl2, 0.5% BSA, 0.1% NaN3). […] of cell suspension (2×10^5 cells/well) and 0.1 nM [^125I]-labeled human eotaxin/CCL11 (2000 Ci/mmol specific activity) were mixed in a 96-well U-bottom polypropylene plate, and incubated for 60 min at room temperature for the binding reaction. The cell suspension was then transferred to a filtration plate (#MAFB, Millipore), and washed 3 times with the binding buffer containing 0.5 M NaCl, scintillant added, and the radioactivity was counted on a TopCount (Packard). For the determination of non-specific binding, the cell suspension and [^125I]-labeled human eotaxin/CCL11 were incubated in the presence of 500 nM of unlabeled human eotaxin/CCL11. See, lino et al., “Molecular cloning and functional characterization of cynomolgus monkey (Macaca fascicularis) CC chemokine receptor, CCR3,” Cytokine 2002, 19, 276-286.

SMILES	Ki
N#Cc1ccc(Oc2cc(Cl)cc(Cl)c2)c(S(=O)(=O)N2CCN(C(=O)c3cccc(Cl)c3)CC2)c1 [Compound 81, 3-(4-(3-Chlorobenzoyl)piperazin-1-ylsulfonyl)-4-(3,5-dichlorophenoxy)benzonitrile]	0.5 to 5 µM
Cc1cc(C)cc(Sc2ccc(C#N)cc2S(=O)(=O)N2CCN(C(=O)c3ccc(C(F)(F)F)cc3)CC2)c1 [Compound 88, 4-(3,5-Dimethylphenylthio)-3-(4-(4-(trifluoromethyl)benzoyl)piperazin-1-ylsulfonyl)benzonitrile]	> 5 µM
Cc1cc(C)cc(Oc2ccc(C#N)cc2S(=O)(=O)N2CCN(C(=O)NC(C)C)CC2)c1 [Compound 58, 4-(5-cyano-2-(3,5-dimethylphenoxy)phenylsulfonyl)-N-isopropylpiperazine-1-carboxamide]	0.05 to 0.5 µM
N#Cc1ccc(Oc2cc(Cl)cc(Cl)c2)c(S(=O)(=O)N2CCN(C(=O)c3cccc(F)c3)CC2)c1 [Compound 86, 4-(3,5-Dichlorophenoxy)-3-(4-(3-fluorobenzoyl)piperazin-1-ylsulfonyl)benzonitrile]	> 5 µM
Cc1cc(C)cc(Oc2ccc(C#N)cc2S(=O)(=O)N2CCN(C(=O)c3ccccc3)CC2)c1 [Compound 55, 3-(4-Benzoylpiperazin-1-ylsulfonyl)-4-(3,5-dimethylphenoxy)benzonitrile]	> 5 µM
CC(C)NC(=S)N1CCN(S(=O)(=O)c2cc(C#N)ccc2Sc2cc(Cl)cc(Cl)c2)CC1 [Compound 101]	> 5 µM
CC(C)C(=O)N1CCN(S(=O)(=O)c2cc(C#N)ccc2Sc2cc(Cl)cc(Cl)c2)CC1 [Compound 112]	> 5 µM
Cc1ccc(C(=O)N2CCN(S(=O)(=O)c3cc(C#N)ccc3Oc3cc(C)cc(C)c3)CC2)cc1 [Compound 114]	0.5 to 5 µM
CCOC(=O)CCNC(=S)N1CCN(S(=O)(=O)c2cc(C#N)ccc2Oc2cc(Cl)cc(Cl)c2)CC1 [Compound 143]	0.05 to 0.5 µM
Cc1cc(C)cc(Sc2ccc(C#N)cc2S(=O)(=O)N2CCN(C(=O)Nc3cccc(F)c3)CC2)c1 [Compound 93]	0.05 to 0.5 µM
Cc1nnsc1C(=O)N1CCN(S(=O)(=O)c2cc(C#N)ccc2Sc2cc(Cl)cc(Cl)c2)CC1 [Compound 139]	≤ 0.05 µM
Cc1cc(C)cc(Oc2ccc(C#N)cc2S(=O)(=O)N2CCN(S(=O)(=O)c3ccc(C(F)(F)F)cc3)CC2)c1 [Compound 60, 4-(3,5-dimethylphenoxy)-3-(4-(4-(trifluoromethyl)phenylsulfonyl)piperazin-1-ylsulfonyl)benzonitrile]	> 5 µM
Cc1ccc(C)c(Sc2ccc([N+](=O)[O-])cc2S(=O)(=O)N2CCN(C(=O)c3ccc(Cl)cc3)CC2)c1 [Compound 173, (4-Chlorophenyl)(4-(2-(2,5-dimethylphenylthio)-5-nitrophenylsulfonyl)-piperazin-1-yl)methanone]	> 5 µM
C=CNC(=O)N1CCN(S(=O)(=O)c2cc(C#N)ccc2Oc2cc(Cl)cc(Cl)c2)CC1 [Compound 150]	> 5 µM
Cc1cc(C)cc(Sc2ccc(C#N)cc2S(=O)(=O)N2CCN(C(=O)c3ccccc3C)CC2)c1 [Compound 92, 4-(3,5-Dimethylphenylthio)-3-(4-(2-methylbenzoyl)piperazin-1-ylsulfonyl)benzonitrile]	> 5 µM
Cc1cc(C)cc(Oc2ccc(C#N)cc2S(=O)(=O)N2CCN(C(=O)C3CCC3)CC2)c1 [Compound 64, 3-(4-(Cyclobutanecarbonyl)piperazin-1-ylsulfonyl)-4-(3,5-dmethylphenoxy)benzonitrile]	> 5 µM
Cc1cc(C)cc(Oc2ccc(C#N)cc2S(=O)(=O)N2CCN(C(=O)Nc3cccc(F)c3)CC2)c1 [Compound 61, 4-(5-Cyano-2-(3,5-dimethylphenoxy)phenylsulfonyl)-N-(3-fluorophenyl)piperazine-1-carboxamide]	> 5 µM
Cc1nnsc1C(=O)N1CCN(S(=O)(=O)c2cc(C#N)ccc2Oc2cc(Cl)cc(Cl)c2)CC1 [Compound 127]	≤ 0.05 µM
CCC(C)(C)C(=O)N1CCN(S(=O)(=O)c2cc(C#N)ccc2Oc2cc(C)cc(C)c2)CC1 [Compound 59, 3-(4-(2,2-Dimethylbutanoyl)piperazin-1-ylsulfonyl)-4-(3,5-dimethylphenoxy)benzonitrile]	> 5 µM
N#Cc1ccc(Oc2cc(Cl)cc(Cl)c2)c(S(=O)(=O)N2CCN(C(N)=O)CC2)c1 [Compound 125]	≤ 0.05 µM

SMILES	Ki
Cc1cc(C)cc(Oc2ccc(C#N)cc2S(=O)(=O)N2CCN(C(=O)C3CCCCC3)CC2)c1 [Compound 65, 3-(4-(Cyclohexanecarbonyl)piperazin-1-ylsulfonyl)-4-(3,5-dimethylphenoxy)benzonitrile]	> 5 µM
N#Cc1ccc(Oc2cc(Cl)cc(Cl)c2)c(S(=O)(=O)N2CCN(C(=O)c3ccccn3)CC2)c1 [Compound 128]	0.5 to 5 µM
N#Cc1ccc(Oc2cc(Cl)cc(Cl)c2)c(S(=O)(=O)N2CCN(C(=O)c3ccc(C(F)(F)F)cc3)CC2)c1 [Compound 69, 4-(3,5-Dichlorophenoxy)-3-(4-(4-(trifluoromethyl)benzoyl)piperazin-1-ylsulfonyl)benzonitrile]	> 5 µM
O=C(c1ccc(Cl)cc1)N1CCN(S(=O)(=O)c2cc([N+](=O)[O-])ccc2Sc2cc(Cl)ccc2Cl)CC1 [Compound 164, (4-Chlorophenyl)(4-(2-(2,5-dichlorophenylthio)-5-nitrophenylsulfonyl)-piperazin-1-yl)methanone]	> 5 µM
Cc1cc(C)cc(Oc2ccc(C#N)cc2S(=O)(=O)N2CCN(S(=O)(=O)CC34CCC(CC3=O)C4(C)C)CC2)c1 (stereo not shown) [Compound 51]	> 5 µM
Cc1cc(C)cc(Oc2ccc(C#N)cc2S(=O)(=O)N2CCN(C(=O)CC(C)C)CC2)c1 [Compound 66, 4-(3,5-Dimethylphenoxy)-3-(4-(3-methylbutanoyl)piperazin-1-ylsulfonyl)benzonitrile]	> 5 µM
N#Cc1ccc(Oc2cc(Cl)cc(Cl)c2)c(S(=O)(=O)N2CCN(C(=S)NC(=O)/C=C/c3ccccc3)CC2)c1 [Compound 147]	> 5 µM
Cc1ccc(C(=O)N2CCN(S(=O)(=O)c3cc(C#N)ccc3Sc3cc(C)cc(C)c3)CC2)cc1 [Compound 90, 4-(3,5-Dimethylphenylthio)-3-(4-(4-methylbenzoyl)piperazin-1-ylsulfonyl)benzonitrile]	0.05 to 0.5 µM
N#Cc1ccc(Oc2cc(Cl)cc(Cl)c2)c(S(=O)(=O)N2CCN(C(=O)Nc3cccc(F)c3)CC2)c1 [Compound 75, 4-(5-Cyano-2-(3,5-dichlorophenoxy)phenylsulfonyl)-N-(3-fluorophenyl)piperazine-1-carboxamide]	≤ 0.05 µM
Cc1ccc(C(=O)N2CCN(S(=O)(=O)c3cc(C#N)ccc3Oc3cc(Cl)cc(Cl)c3)CC2)cc1 [Compound 82, 4-(3,5-Dichlorophenoxy)-3-(4-(4-methylbenzoyl)piperazin-1-ylsulfonyl)benzonitrile]	0.5 to 5 µM
CC(=O)N1CCN(S(=O)(=O)c2cc(C#N)ccc2Oc2cc(C)cc(C)c2)CC1 [Compound 107]	> 5 µM
Cc1cc(C)cc(Oc2ccc(C#N)cc2S(=O)(=O)N2CCN(C(=S)NC(C)C)CC2)c1 [Compound 103]	> 5 µM
Cc1cc(C)cc(Oc2ccc(C#N)cc2S(=O)(=O)N2CCN(C(=O)c3ccc(C(F)(F)F)cc3)CC2)c1 [Compound 54, 4-(3,5-Dimethylphenoxy)-3-(4-(4-(trifluoromethyl)benzoyl)piperazin-1-ylsulfonyl)benzonitrile]	> 5 µM
N#Cc1ccc(Sc2cc(Cl)cc(Cl)c2)c(S(=O)(=O)N2CCN(C(=O)c3cccc(F)c3)CC2)c1 [Compound 113]	> 5 µM
COc1ccc(C(=O)N2CCN(S(=O)(=O)c3cc(C#N)ccc3Oc3cc(C)cc(C)c3)CC2)cc1 [Compound 117]	> 5 µM
Cc1ccc(NC(=O)N2CCN(S(=O)(=O)c3cc([N+](=O)[O-])ccc3Sc3cc(Cl)ccc3Cl)CC2)cc1 [Compound 193, 4-(2-(2,5-Dichlorophenylthio)-5-nitrophenylsulfonyl)-N-p-tolylpiperazine-1-carboxamide]	> 5 µM
COc1ccc(C(=O)N2CCN(S(=O)(=O)c3cc([N+](=O)[O-])ccc3Oc3cc(C)ccc3C)CC2)cc1 [Compound 189, (4-(2-(2,5-Dimethylphenoxy)-5-nitrophenylsulfonyl)piperazin-1-yl)(4-methoxyphenyl)methanone]	> 5 µM
Cc1cc(C)cc(Oc2ccc(C#N)cc2S(=O)(=O)N2CCN(S(=O)(=O)CC(C)C)CC2)c1 [Compound 56, 4-(3,5-Dimethylphenoxy)-3-(4-(isobutylsulfonyl)piperazin-1-ylsulfonyl)benzonitrile]	> 5 µM
N#Cc1ccc(Oc2cc(Cl)cc(Cl)c2)c(S(=O)(=O)N2CCN(C(=O)NCc3ccco3)CC2)c1 [Compound 135]	≤ 0.05 µM
CC(C)NC(=O)N1CCN(S(=O)(=O)c2cc(C#N)ccc2Oc2cc(Cl)cc(Cl)c2)CC1 [Compound 80, 4-(5-Cyano-2-(3,5-dichlorophenoxy)phenylsulfonyl)-N-isopropylpiperazine-1-carboxamide]	0.5 to 5 µM
